Experimental findings from patent US8889391B1 (Cargill, Incorporated, priority 2006, dated 2014) are described below.

Read-outs that look alike come from different tables or passages of the source.

As usually defined, the Km is the substrate concentration at which the rate is half of its maximum.

In data set [1] the target is BAAT-3-HP dehydrogenase system: Streptomyces avermitilis BAAT variant BAAT5-9 (P3H, S24T, D110N, F113L, A133T), SEQ ID NO: 19, coupled with P. putida 3-HP dehydrogenase (PpmmsB31), SEQ ID NO: 27 (Streptomyces avermitilis, UniProt Q82ER2, D110N/F113L/P3H/S24T). In words: biochemical. Conditions: pH 8, read-out: reduction of activity of the BAAT-3-HP dehydrogenase system. Here is the method:
The effect of acetate on the in vitro biological activity of BAAT enzymes in cell extracts was also measured using a coupled assay in which the malonyl semialdehyde product of the reaction catalyzed by BAAT was reduced by a 3-HP dehydrogenase. An extract of cells carrying the integrated BAAT5-9/PpmmsB31 was made by resuspending cells collected by centrifugation with Bugbuster (EMD/Novagen, Madison Wis.) as described by the manufacturer. […] The progress of the reaction was monitored as the decrease in A340 due to oxidation of the NADH. The effect of acetate or pyruvate was determined by adding up to 20 mM of either compound (as the neutral Na^+ salt).

Data set [2] deals with BAAT (BAAT5-9) in E. coli 11303 Δpta ΔadhE ΔfrdABCD ΔldhA Δpan(C-D) ΔpoxB INT(BAAT5-9/PpmmsB31) carrying pCEC/SapanD. In words: microbe, parasite or virus in culture. Conditions: for inhibition at 20000 µM / inhibition at 100000 µM: Escherichia coli. Here is the method:
A culture of E. coli 11303 Δpta ΔadhE ΔfrdABCD ΔldhA Δpan(C-D) ΔpoxB INT(BAAT5-9/PpmmsB31) carrying the vector pCEC/SapanD was grown in LB media with chloramphenicol at 30° C. This culture was used to inoculate 20 mL modified Overnight Express media (Novagen) to an initial OD600 of 0.05 in a 125 mL flask. Modification to the media included the replacement of Solution 1 with glucose at a concentration of 0.1% and arabinose at 2%, and addition of 20 uM Ca^2+ pantothenate, 25 ug/mL chloramphenicol, 100 uM pyridoxine-HCl and 1 mM IPTG. […] Glucose biotransformation medium consisted of M9 salts, 100 mM MOPS pH 8, 1% glucose, 500 uM IPTG, and 50 uM pyridoxine-HCl.
For aerobic biotransformations, 900 uL of the resuspended culture was aliquoted to a 14 mL Falcon tube and the volume was brought to 1 mL with water and/or sodium acetate (pH 7). For anaerobic biotransformations, 1.35 mL of the resuspended culture was aliquoted to a 1.8 mL glass vial and the volume was brought to 1.5 mL with water and/or sodium acetate(pH 7). Final concentrations of sodium acetate added were 0, 20 mM, and 100 mM, and biotransformation incubations were at 30° C. with shaking at 225 rpm. […] Culture supernatants were acidified with 0.05 volumes of 90% formic acid, centrifuged, filtered, and analyzed for 3-HP production as described in Example 8.

Data set [3] concerns O=CCC(=O)O. In words: purified protein, by the assay type. Conditions: other: purified enzyme; NADH is the preferred reductant.
Substrate in data set [4]: O=CCC(=O)O
In words: ydfG dehydrogenase kinetics, purified enzyme. Type of data set: biochemical, E. coli. As to conditions: other: purified enzyme; NADPH is the only cofactor used; 58.0 °C. Here is the method: The ydfG gene was cloned into the pET28b vector (Novagen, Madison, Wis.) to allow purification and kinetic studies on purified protein. The primers used for this cloning had restriction sites added to allow cloning into NdeI and BamHI sites. […] (SEQ ID NO: 32) and […] (SEQ ID NO: 33). Fragment amplification was performed using Pfu DNA polymerase to minimize amplification errors, and used an annealing temperature of 58° C. A PCR product band of approximately 750 bp was gel-purified, digested with NdeI and BamHI, and ligated, using an NEB Quick Ligation method (New England BioLabs, Waverly Mass.), into pET28B vector that had been digested with the same enzymes. The ligation reaction was transformed into E. coli Electromax™ DH10B™ cells and plated on LB medium containing 25 μg/ml kanamycin. Plasmid DNA from a colony showing the correct insert size was sequenced and shown to be identical to the ydfG sequence from E. coli MG1655.

Substrate in data set [5]: NCCC(=O)O
In words: purified protein, by the assay type. As to conditions: other: pH 8.0, 10 mM alpha-ketoglutarate, 25° C. Type of data set: biochemical, Streptomyces avermitilis.

Substrate in data set [6]: NCCC(=O)O
Kind of data set: purified protein, by the assay type. As to conditions: other: pH 8.0, 10 mM alpha-ketoglutarate, 25° C.

The mark [7] stands for this setting: read-out: reduction in 3-HP from beta-alanine.
Setting [8] is: read-out: reduction in 3-HP from glucose.

For `CC(=O)O` [acetate], in data set [1], the inhibition at 10000 µM is roughly 50%. Further, the inhibition at 20000 µM in data set [2] (setting [7]) came to 22%; in data set [2] (setting [8]), 28%. The values for the inhibition at 100000 µM in data set [2] (setting [7]) and in data set [2] (setting [8]) were 47% and 52%, respectively. Moreover, the “reduction in 3-HP” value in data set [2] (anaerobic conditions, acetate added (20 mM and 100 mM)) is 8-29%. For the molecule `CC(=O)C(=O)O` [pyruvate], the inhibition at 10000 µM in data set [1] was roughly 50%. With “Pseudomonas aeruginosa 3-HP dehydrogenase (PammsB), SEQ ID NO: 21 (Pseudomonas aeruginosa PAO1)”, in data set [3], the Km is 4.5 mM.

B1: E. coli ydfG protein, SEQ ID NO: 31 (Escherichia coli K-12) (protein)
chain: MIVLVTGATAGFGECITRRFIQQGHKVIATGRRQERLQELKDELGDNLYIAQLDVRNRAAIEEMLASLPAEWCNIDILVNNAGLALGMEPAHKASVEDWETMIDTNNKGLVYMTRAVLPGMVERNHGHIINIGSTAGSWPYAGGNVYGATKAFVRQFSLNLRTDLHGTAVRVTDIEPGLVGGTEFSNVRFKGDDGKAEKTYQNTVALTPEDVSEAVWWVSTLPAHVNINTLEMMPVTQSYAGLNVHRQ
B1: in data set [4], the Km amounted to 3.7 mM.

B2: Streptomyces avermitilis BAAT variant BAAT3ML (P3H, S24T, F113L, A133T), SEQ ID NO: 17 (Streptomyces avermitilis MA-4680 = NBRC 14893; F113L/P3H/S24T) (protein)
chain: MTHQPNPQVGAAVKAADRAHVFHTWSAQELIDPLAVAGAEGSYFWDYDGRRYLDFTSGLVFTNIGYQHPKVVAAIQEQAASLTTFAPAFAVEARSEAARLIAERTPGDLDKILFTNGGADAIEHAVRMARIHTGRPKVLSAYRSYHGGTQQAVNITGDPRRWASDSASAGVVHFWAPYLYRSRFYAETEQQECERALEHLETTIAFEGPGTIAAIVLETVPGTAGIMVPPPGYLAGVRELCDKYGIVFVLDEVMAGFGRTGEWFAADLFDVTPDLMTFAKGVNSGYVPLGGVAISGKIAETFGKRAYPGGLTYSGHPLACAAAVATINVMAEEGVVENAANLGARVIEPGLRELAERHPSVGEVRGVGMFWALELVKDRETREPLVPYNAAGEANAPMAAFGAAAKANGLWPFINMNRTHVVPPCNVTEAEAKEGLAALDAALSVADEYTV
In the case of B2, the Km in data set [5] was found to be 21 mM.

B3: Streptomyces avermitilis BAAT variant BAAT3 (S24T, F113L, A133T), SEQ ID NO: 12 (Streptomyces avermitilis MA-4680 = NBRC 14893; F113L/S24T) (protein)
chain: MTPQPNPQVGAAVKAADRAHVFHTWSAQELIDPLAVAGAEGSYFWDYDGRRYLDFTSGLVFTNIGYQHPKVVAAIQEQAASLTTFAPAFAVEARSEAARLIAERTPGDLDKILFTNGGADAIEHAVRMARIHTGRPKVLSAYRSYHGGTQQAVNITGDPRRWASDSASAGVVHFWAPYLYRSRFYAETEQQECERALEHLETTIAFEGPGTIAAIVLETVPGTAGIMVPPPGYLAGVRELCDKYGIVFVLDEVMAGFGRTGEWFAADLFDVTPDLMTFAKGVNSGYVPLGGVAISGKIAETFGKRAYPGGLTYSGHPLACAAAVATINVMAEEGVVENAANLGARVIEPGLRELAERHPSVGEVRGVGMFWALELVKDRETREPLVPYNAAGEANAPMAAFGAAAKANGLWPFINMNRTHVVPPCNVTEAEAKEGLAALDAALSVADEYTV
Regarding B3, in data set [5], the Km stood at 14.7 mM.

B4: Streptomyces avermitilis BAAT variant BAAT1 (S24T), SEQ ID NO: 6 (Streptomyces avermitilis MA-4680 = NBRC 14893; S24T) (protein)
chain: MTPQPNPQVGAAVKAADRAHVFHTWSAQELIDPLAVAGAEGSYFWDYDGRRYLDFTSGLVFTNIGYQHPKVVAAIQEQAASLTTFAPAFAVEARSEAARLIAERTPGDLDKIFFTNGGADAIEHAVRMARIHAGRPKVLSAYRSYHGGTQQAVNITGDPRRWASDSASAGVVHFWAPYLYRSRFYAETEQQECERALEHLETTIAFEGPGTIAAIVLETVPGTAGIMVPPPGYLAGVRELCDKYGIVFVLDEVMAGFGRTGEWFAADLFDVTPDLMTFAKGVNSGYVPLGGVAISGKIAETFGKRAYPGGLTYSGHPLACAAAVATINVMAEEGVVENAANLGARVIEPGLRELAERHPSVGEVRGVGMFWALELVKDRETREPLVPYNAAGEANAPMAAFGAAAKANGLWPFINMNRTHVVPPCNVTEAEAKEGLAALDAALSVADEYTV
As to B4, in data set [5], the Km is reported as 7.3 mM.

B5: Streptomyces avermitilis beta-alanine/alpha-ketoglutarate aminotransferase (BAAT), wild type, SEQ ID NO: 4 (Streptomyces avermitilis MA-4680 = NBRC 14893) (protein)
chain: MTPQPNPQVGAAVKAADRAHVFHSWSAQELIDPLAVAGAEGSYFWDYDGRRYLDFTSGLVFTNIGYQHPKVVAAIQEQAASLTTFAPAFAVEARSEAARLIAERTPGDLDKIFFTNGGADAIEHAVRMARIHAGRPKVLSAYRSYHGGTQQAVNITGDPRRWASDSASAGVVHFWAPYLYRSRFYAETEQQECERALEHLETTIAFEGPGTIAAIVLETVPGTAGIMVPPPGYLAGVRELCDKYGIVFVLDEVMAGFGRTGEWFAADLFDVTPDLMTFAKGVNSGYVPLGGVAISGKIAETFGKRAYPGGLTYSGHPLACAAAVATINVMAEEGVVENAANLGARVIEPGLRELAERHPSVGEVRGVGMFWALELVKDRETREPLVPYNAAGEANAPMAAFGAAAKANGLWPFINMNRTHVVPPCNVTEAEAKEGLAALDAALSVADEYTV
With B5, in data set [6], the Km worked out at 2.5 mM.

B6: Streptomyces avermitilis BAAT variant BAAT5-9 (P3H, S24T, D110N, F113L, A133T), SEQ ID NO: 19 (Streptomyces avermitilis MA-4680 = NBRC 14893; … (protein)
chain: MTHQPNPQVGAAVKAADRAHVFHTWSAQELIDPLAVAGAEGSYFWDYDGRRYLDFTSGLVFTNIGYQHPKVVAAIQEQAASLTTFAPAFAVEARSEAARLIAERTPGDLNKILFTNGGADAIEHAVRMARIHTGRPKVLSAYRSYHGGTQQAVNITGDPRRWASDSASAGVVHFWAPYLYRSRFYAETEQQECERALEHLETTIAFEGPGTIAAIVLETVPGTAGIMVPPPGYLAGVRELCDKYGIVFVLDEVMAGFGRTGEWFAADLFDVTPDLMTFAKGVNSGYVPLGGVAISGKIAETFGKRAYPGGLTYSGHPLACAAAVATINVMAEEGVVENAANLGARVIEPGLRELAERHPSVGEVRGVGMFWALELVKDRETREPLVPYNAAGEANAPMAAFGAAAKANGLWPFINMNRTHVVPPCNVTEAEAKEGLAALDAALSVADEYTV
For the molecule B6, the Km in data set [5] was determined as 25 mM.
